Experimental data as given in patent publication US20230040386A1, “URSODEOXYCHOLIC ACID-CONTAINING AGENT FOR TREATING OR PREVENTING PRESBYOPIA” (priority 2018, published 2023).

Experiments:
Assay type in all cases: in vivo, C57BL/6J mice
[1] = tested on: lens; experiment: Pharmacological Test 7: lens elasticity, tauroursodeoxycholic acid once-daily for 7 days
Experimental: (§1) A vehicle comprising 0.1% (w/v) of ethyl pyruvate, 0.269% (w/v) of sodium dihydrogenphosphate monohydrate (NaH2PO4H2O), 0.433% (w/v) of disodium hydrogenphosphate (Na2HPO4), 0.2% (w/v) of hydroxypropyl methylcellulose, 0.5% (w/v) of NaCl was prepared. Tauroursodeoxycholic acid was dissolved with the addition of the vehicle to prepare a 1.0% (w/v) solution. The total amount of each sample to be used in one day was prepared before use. 1) Each test sample (2.5 μL/eye) was instilled into both eyes of 7-month-old C57BL/6J mice with a Pipetman once per day (QD; around 13:30) for 7 days. 2) Twenty-four hours after the final instillation, the mice were euthanized by carbon dioxide inhalation, and then the eyeballs were extracted and rinsed with Hank's balanced salt solution (HBSS). 3) The sclera near the optic nerve was cut with a razor, the lens was removed through the incision, and the removed lens was immersed in HBSS. 4) The lens was placed on a glass slide, and an all-in-one fluorescence microscope BZ-9000 (Keyence) was used to capture an image of the lens (Image a). […] 6) A change in the lens diameter was calculated from Equation 1 wherein the lens diameter of Image a is subtracted from the lens diameter of Image b, as described below. Then, the lens elasticity improvement of each sample group compared with the vehicle control group was calculated from Equation 2 described below. […]

[2] = tested on: lens; experiment: Pharmacological Test 6: lens elasticity, ursodeoxycholic acid methyl ester once-daily for 7 days; details: for Lens elasticity improvement: QD, 7-month-old mice, vs vehicle control
Experimental: A vehicle comprising 0.1% (w/v) of ethyl pyruvate, 0.269% (w/v) of sodium dihydrogenphosphate monohydrate […], 0.433% (w/v) of disodium hydrogenphosphate (Na2HPO4), 0.2% (w/v) of hydroxypropyl methylcellulose, 0.5% (w/v) of NaCl was prepared. Ursodeoxycholic acid methyl ester was sonicated with the addition of the vehicle to prepare a 0.3% (w/v) suspension, a 1.0% (w/v) suspension and a 3.0% (w/v) suspension. The total amount of each sample to be used in one day was prepared before use. 1) Each test sample (2.5 μL/eye) was instilled into both eyes of 7-month-old C57BL/6J mice with a Pipetman once per day (QD; around 13:30) for 7 days. 2) Twenty-four hours after the final instillation, the mice were euthanized by carbon dioxide inhalation, and then the eyeballs were extracted and rinsed with Hank's balanced salt solution (HBSS). 3) The sclera near the optic nerve was cut with a razor, the lens was removed through the incision, and the removed lens was immersed in HBSS. 4) The lens was placed on a glass slide, and an all-in-one fluorescence microscope BZ-9000 (Keyence) was used to capture an image of the lens (Image a). 5) Next, one cover glass (Corning^(registered trade mark) 22×22 mm Square) was placed on the lens, and an image in which the thickness of the lens changed due to the weight was similarly captured (Image b). 6) A change in the lens diameter was calculated from Equation 1 wherein the lens diameter of Image a is subtracted from the lens diameter of Image b, as described below. Then, the lens elasticity improvement of each sample group compared with the vehicle control group was calculated from Equation 2 described below. Each mean of the vehicle control group and each ursodeoxycholic acid methyl ester sample group was based on 9 or 10 eyes. Change in lens diameter=Lens diameter in Image b of each test sample−Lens diameter in Image a of each test sample (Equation 1) Lens elasticity improvement of each sample group=Mean change in lens diameter of each Test sample group−Mean change in lens diameter of Vehicle control group (Equation 2)

[3] = tested on: lens; experiment: Pharmacological Test 2: lens elasticity after instillation of sodium ursodeoxycholate; details: for Lens elasticity improvement: 2.5 μL/eye, 3 times per day, 12 to 15 days, vs vehicle control
Experimental: A vehicle comprising 0.1% (w/v) of ethyl pyruvate, 0.269% (w/v) of sodium dihydrogenphosphate monohydrate (NaH2PO4H2O), 0.433% (w/v) of disodium hydrogenphosphate (Na2HPO4), 0.2% (w/v) of hydroxypropyl methylcellulose, 0.5% (w/v) of NaCl was prepared. Sodium ursodeoxycholate was sonicated with the addition of the vehicle to prepare a 1.5% (w/v) suspension. The resulting 1.5% (w/v) suspension was diluted with the vehicle to prepare a 0.5% (w/v) suspension. Further, the resulting 0.5% (w/v) suspension was diluted with the vehicle to prepare a 0.15% (w/v) suspension. The total amount of each sample to be used in one day was prepared before use. EV06 was sonicated with the addition of the vehicle to prepare a 1.5% (w/v) solution. The total amount of the sample to be used in one day was prepared before use. 1) Each test sample (2.5 μL/eye) was instilled into the right eye of 8-month-old C57BL/6J mice with a Pipetman 3 times per day (around 9:00, 13:00 and 17:00) for 12 to 15 days. 2) After the final instillation, the mice were euthanized by carbon dioxide inhalation, and then the eyeballs were extracted and rinsed with Hank's balanced salt solution (HBSS)). 3) The sclera near the optic nerve was cut with a razor, the lens was removed through the incision, and the removed lens was immersed in HBSS. 4) The lens was placed on a glass slide, and an all-in-one fluorescence microscope BZ-9000 (Keyence) was used to capture an image of the lens (Image a). 5) Next, one cover glass (Corning^(registered trade mark) 22×22 mm Square) was placed on the lens, and an image in which the thickness of the lens changed due to the weight was similarly captured (Image b). 6) A change in the lens diameter was calculated from Equation 1 wherein the lens diameter of Image a is subtracted from the lens diameter of Image b, as described below. Then, the lens elasticity improvement of each sample group compared with the vehicle control group was calculated from Equation 2 described below. The mean of the vehicle control group was based on 5 eyes, the mean of each sodium ursodeoxycholate sample group was based on 10 eyes, and the mean of the EV06 sample group was based on 10 eyes. Change in lens diameter Lens diameter in image b of each test sample−Lens diameter in Image a of each test sample (Equation 1) Lens elasticity improvement of each sample group=Mean change in lens diameter of each Test sample group−Mean change in lens diameter of Vehicle control group (Equation 2)

[4] = tested on: lens; experiment: Pharmacological Test 3: lens elasticity after instillation of ursodeoxycholic acid (free form)
Experimental: A vehicle comprising 0.1% (w/v) of ethyl pyruvate, 0.269% (w/v) of sodium dihydrogenphosphate monohydrate (NaH2PO4H2O), 0.433% (w/v) of disodium hydrogenphosphate (Na2HPO4), 0.2% (w/v) of hydroxypropyl methylcellulose, and 0.5% (w/v) of NaCl was prepared. Ursodeoxycholic acid was sonicated with the addition of the vehicle to prepare a 1.5% (w/v) suspension. The resulting 1.5% (w/v) suspension was diluted with the vehicle to prepare a 0.5% (w/v) suspension. Further, the resulting 0.5% (w/v) suspension was diluted with the vehicle to prepare a 0.15% (w/v) suspension. The total amount of each sample to be used in one day was prepared before use. EV06 was sonicated with the addition of the vehicle to prepare a 1.5% (w/v) solution. The total amount of the sample to be used in one day was prepared before use. 1) Each test sample (2.5 μL/eye) was instilled into the right eye of 8-month-old C57BL/6J mice with a Pipetman 3 times per day (around 9:00, 13:00 and 17:00) for 12 to 15 days. 2) After the final instillation, the mice were euthanized by carbon dioxide inhalation, and then the eyeballs were extracted and rinsed with Hank's balanced salt solution (HBSS). 3) The sclera near the optic nerve was cut with a razor, the lens was removed through the incision, and the removed lens was immersed in HBSS. 4) The lens was placed on a glass slide, and an all-in-one fluorescence microscope BZ-9000 (Keyence) was used to capture an image of the lens (Image a). 5) Next, one cover glass (Corning^(registered trade mark) 22×22 mm Square) was placed on the lens, and an image in which the thickness of the lens changed due to the weight was similarly captured (image b). 6) A change in the lens diameter was calculated from Equation 1 wherein the lens diameter of Image a is subtracted from the lens diameter of Image b, as described below. Then, the lens elasticity improvement of each sample group compared with the vehicle control group was calculated from Equation 2 described below. The mean of the vehicle control group was based on 5 eyes, the mean of each ursodeoxycholic acid sample group was based on 10 eyes, and the mean of the EV06 sample group was based on 10 eyes. Change in lens diameter=Lens diameter in Image b of each test sample−Lens diameter in Image a of each test sample (Equation 1) Lens elasticity improvement of each sample group=Mean change in lens diameter of each Test sample group−Mean change in lens diameter of Vehicle control group (Equation 2)

[5] = tested on: lens; experiment: Pharmacological Test 8: lens elasticity, glycoursodeoxycholic acid once-daily for 7 days
Experimental: as §1, with “Glycoursodeoxycholic” for “Tauroursodeoxycholic”, “sonicated” for “dissolved”, “suspension.” for “solution.”, “8-month-old” for “7-month-old”, “(image” for “(Image”

[6] = 1.5% sample group vs EV06 at the same concentration

`C[C@H](CCC(=O)NCCS(=O)(=O)O)[C@H]1CC[C@H]2[C@@H]3[C@@H](O)C[C@@H]4C[C@H](O)CC[C@]4(C)[C@H]3CC[C@]12C` [tauroursodeoxycholic acid, 3α,7β-Dihydroxy-5β-cholan-24-oic Acid N-(2-Sulfoethyl)amide] was tested, and the Lens elasticity improvement ([1]; 1% (w/v) solution, QD, 7-month-old mice, vs vehicle control) was 29.7 μm and the “Lens elasticity improvement, in words” value ([1]; 1% sample instilled once-daily) was “potent lens elasticity improvement”.
In the case of `COC(=O)CC[C@@H](C)[C@H]1CC[C@H]2[C@@H]3[C@@H](O)C[C@@H]4C[C@H](O)CC[C@]4(C)[C@H]3CC[C@]12C` [ursodeoxycholic acid methyl ester], the Lens elasticity improvement ([2]; 0.3% (w/v) sample) is reported as 13.2 μm, the Lens elasticity improvement ([2]; 1% (w/v) sample) is reported as 33.0 μm and the “Lens elasticity improvement, in words” value ([2]; 1% and 3% samples instilled once-daily) is reported as “potent lens elasticity improvement”. It also gave a Lens elasticity improvement ([2]; 3% (w/v) sample) of 46.5 μm.
In the case of `C[C@H](CCC(=O)[O-])[C@H]1CC[C@H]2[C@@H]3[C@@H](O)C[C@@H]4C[C@H](O)CC[C@]4(C)[C@H]3CC[C@]12C.[Na+]` [sodium ursodeoxycholate], the Lens elasticity improvement ([3]; 0.15% (w/v) sample) is reported as 26.5 μm, the Lens elasticity improvement ([3]; 0.5% (w/v) sample) is reported as 34.8 μm and the Lens elasticity improvement ([3]; 1.5% (w/v) sample) is reported as 44.7 μm. For the same compound, the “Lens elasticity improving effect compared with EV06, in words” value [3, 6] was “stronger than that of EV06”, the “Lens elasticity improving effect, in words” value ([3]; all of the 0.15%, 0.5% and 1.5% sample groups) was “potent lens elasticity improving effect” and the “Lens elasticity improving effect compared with EV06, in words” value [4, 6] was “stronger than that of EV06”. The “Lens elasticity improving effect, in words” value ([4]; all of the 0.15%, 0.5% and 1.5% sample groups (Table 3)) was “potent lens elasticity improving effect”.
For `C[C@H](CCC(=O)NCC(=O)O)[C@H]1CC[C@H]2[C@@H]3[C@@H](O)C[C@@H]4C[C@H](O)CC[C@]4(C)[C@H]3CC[C@]12C` [glycoursodeoxycholic acid, N-(3α,7β-Dihydroxy-5β-cholan-24-oyl)glycine], the Lens elasticity improvement ([5]; 1% (w/v) suspension, QD, 8-month-old mice, vs vehicle control) was 20.1 μm and the “Lens elasticity improvement, in words” value ([5]; 1% sample instilled once-daily) was “potent lens elasticity improvement”.
